Here are results for 3 compounds from patent US6548515B1, “Dihydrofuro[3,4-b]quinolin-1-one compounds” (Les Laboratories Servier, priority 1999, dated 2003).

Assay [1] deals with murine leukaemia, L1210. As to the kind of experiment: Cytotoxicity in vitro (Microculture Tetrazolium Assay), L1210. The assay is classed as cell-based. The following applies: Mus musculus, 48 h; L1210 cells, incubated 2 days, inhibition of proliferation by 50%. The procedure:
(§1) Three cell lines are used:
1 murine leukaemia, L1210,
(§2) The cells are cultured in complete RPMI 1640 culture medium containing 10% foetal calf serum, 2 mM glutamine, 50 units/ml of penicillin, 50 μg/ml of streptomycin and 10 mM Hepes, pH=7.4. The cells are distributed in microplates and exposed to the cytotoxic compounds. The cells are then incubated for 2 days (L1210) or 4 days (A549, HT29). The number of viable cells is then quantified by means of a calorimetric assay, the Microculture Tetrazolium Assay (Cancer Res. 1987, 47, 939-942).
(§3) The results are expressed as IC50, the concentration of cytotoxic agent that inhibits the proliferation of the treated cells by 50%.

The subject of assay [2] is human non-small-cell lung carcinoma, A549. As to the kind of experiment: Cytotoxicity in vitro (Microculture Tetrazolium Assay), A549. The assay is classed as cell-based. The settings on record: 96 h, A549 cells, incubated 4 days, inhibition of proliferation by 50%. The procedure:
as §1
1 human non-small-cell lung carcinoma, A549,
as §2, §3

Assay [3] relates to human colon carcinoma, HT29. As to the kind of experiment: Cytotoxicity in vitro (Microculture Tetrazolium Assay), HT29. The following applies: HT-29, 96 h, HT29 cells, incubated 4 days, inhibition of proliferation by 50%. The assay is classed as cell-based. The procedure: as §1
1 human colon carcinoma, HT29
as §2, §3

Assay [4] has as its system P388 (murine leukaemia). As to the kind of experiment: In vivo anti-tumour activity on P388 leukaemia. Set-up: species or system female BDF1 mice. The settings on record: P388 i.p. in BDF1 mice, intraperitoneal route on day 1, active from the 50 mg/kg dose. The protocol: Line P388 (murine leukaemia) was supplied by the National Cancer Institute (Frederick, USA). The tumour cells (10^6 cells) were inoculated on day 0 into the peritoneal cavity of female BDF1 mice (Iffa-Credo, France) weighing from 18 to 20 g (groups of 6 animals). The products were administered by the intraperitoneal route on day 1 (D1).
The anti-tumour activity is expressed as % T/C: [formula]

Take `COc1cc(CN2C3=C(C(=O)OC3)C(c3cc(OC)c(OC)c(OC)c3)c3cc4c(cc32)OCO4)cc(OC)c1O` (racemic) [Example 8, (±)-4-(3,5-Dimethoxy-4-hydroxybenzyl)-6,7-methylenedioxy-9-(3,4,5-trimethoxyphenyl)-4,9-dihydrofuro[3,4-b]quinolin-1(3H)-one]: the IC50 – broadly, the concentration at which inhibition is half-maximal – turned out to be 62 nM in assay [1], 147 nM in assay [2] and 153 nM in assay [3].

As to `COc1cc(C2C3=C(COC3=O)N(C)c3cc4c(cc32)OCO4)cc(OC)c1OC` (racemic) [Example 1, (±)-4-Methyl-6,7-methylenedioxy-9-(3,4,5-trimethoxyphenyl)-4,9-dihydrofuro[3,4-b]quinolin-1(3H)-one], the IC50 was found to be 53 nM in assay [1], 102 nM in assay [2] and 104 nM in assay [3]. In addition, the “T/C (survival of the treated animals)” value in assay [4] is on record as at least 200%.

Turning to `COc1cc(C2C3=C(COC3=O)Nc3cc4c(cc32)OCO4)cc(OC)c1OC` (racemic) [Example 10, (±)-6,7-Methylenedioxy-9-(3,4,5-trimethoxyphenyl)-4,9-dihydrofuro[3,4-b]quinolin-1(3H)-one], the IC50 in assay [1] amounted to 12 nM; in assay [2] it was 22 nM; in assay [3] it was 18 nM.
